Legend:
PD-1/PD-L1 interaction = target: T1, PD-1/PD-L1 interaction (Homo sapiens, UniProt Q9NZQ7); experiment: PD-1/PD-L1 NFAT reporter co-culture assay; assay type: cell-based; details: Jurkat PD-1 NFAT-luciferase cells co-cultured with aAPC-PD-L1 CHO cells, 6 hrs at 37° C.; read-out: EC50 NFAT Luciferase
T1 construct: expressed in transfected cells; host or cells: CHO cells (aAPC-PD-L1) co-cultured with Jurkat cells overexpressing PD-1 and an NFAT-luciferase reporter
In short: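 CHO aAPC-PD-L1 seeded overnight; PD-1/NFAT-luc Jurkat + cpd in RPMI 1640, 2% FBS added at once; 6 h, 37 °C; ONE-Glo luminescence; EC50, 4-parameter fit.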

PD-L1 = target: T2, PD-L1 (Homo sapiens, UniProt Q9NZQ7); experiment: PD-L1/PD-L1 dimerization biochemical protein-protein interaction assay (ALPHA); assay type: binding; details: compound-induced PD-L1 dimerization, head prints '1 nM' (0.5 nM His-tagged PD-L1 and 0.5 nM FLAG-tagged PD-L1), read-out: AC50 PDL1 Dimer Alpha 1 nM
T2 construct: determine if they can specifically dimerize the extracellular domains of PD-L1
T2 sequence (Q9NZQ7 19-238 limits assumed): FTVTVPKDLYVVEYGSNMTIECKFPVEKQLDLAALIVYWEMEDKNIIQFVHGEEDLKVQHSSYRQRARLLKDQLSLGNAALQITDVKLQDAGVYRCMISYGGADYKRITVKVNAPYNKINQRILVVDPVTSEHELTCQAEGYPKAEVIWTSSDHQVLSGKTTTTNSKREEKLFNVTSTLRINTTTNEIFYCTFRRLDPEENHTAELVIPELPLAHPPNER
T2 sequence (Q9NZQ7 19-238 limits assumed): as above
In short: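 After 2 h at 25 °C with compound, His- and FLAG-tagged PD-L1 ECDs (each 0.5 nM final; 25 mM Hepes pH 7.4, 150 mM NaCl) were detected by sequential anti-His acceptor and anti-FLAG donor bead incubations. Dose-response curves fitted to four-parameter equation for AC50.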

PD-1/PD-L1 = PD-1/PD-L1 (Homo sapiens, UniProt Q9NZQ7); experiment: PD-1/PD-L1 biochemical protein-protein interaction assay (ALPHA); assay type: binding; details: 0.3 nM His tagged PD-L1, 2.5 nM biotinylated Fc-PD-1, 60 minutes at 25° C., read-out: IC50 PD-L1-PD-1 Alpha IC50-mono PD-L1-fcP-D1
PD-1/PD-L1, sequence (Q9NZQ7 19-238 limits assumed): as above
In short: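 Bead proximity read-out: compound-driven loss of ALPHA signal between anti-His acceptor and streptavidin donor beads (20 μg/mL acceptor). Proteins: 0.3 nM His-PD-L1, 2.5 nM biotin-Fc-PD-1, final. 60 min, 25° C, Hepes pH 7.4 buffer. IC50 via four-parameter dose-response fit.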

T1 sequence (Q9NZQ7 19-290): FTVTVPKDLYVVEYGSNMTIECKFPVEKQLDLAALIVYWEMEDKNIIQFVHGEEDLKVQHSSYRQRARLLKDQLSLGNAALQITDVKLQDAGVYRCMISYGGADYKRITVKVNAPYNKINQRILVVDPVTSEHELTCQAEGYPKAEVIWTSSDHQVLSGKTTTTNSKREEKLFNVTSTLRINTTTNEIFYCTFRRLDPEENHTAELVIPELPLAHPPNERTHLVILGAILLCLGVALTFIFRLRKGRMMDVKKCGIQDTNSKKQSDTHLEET

SMILES	EC50 (PD-1/PD-L1 interaction) [nM]	AC50 (PD-L1) [nM]	IC50 (PD-1/PD-L1) [nM]
Cc1c(COc2cc(OCc3cncc(C#N)c3)c(CNC[C@@H](O)CC(=O)O)cc2Cl)cccc1-c1cccc(-c2nc3c(C)c(CNC[C@@H](O)CC(=O)O)ccc3s2)c1C [Example 395, (S)-4-(((2-(3′-((4-((((S)-3-carboxy-2-hydroxypropyl)amino)methyl)-2-chloro-5-((5-cyanopyridin-3-yl)methoxy)phenoxy)methyl)-2,2′-dimethyl-[1,1′-biphenyl]-3-yl)-4-methylbenzo[d]thiazol-5-yl)methyl)amino)-3-hydroxybutanoic acid]	151	89.6	0.217
COc1nc(-c2cccc(-c3cccc4c3CC[C@@H]4Oc3nc(OCc4cncc(C#N)c4)c(CN[C@@](C)(CO)C(=O)O)cc3Cl)c2Br)ccc1C1=NCCN1 [Example 702]	1310	332	0.316
COc1nc(-c2cccc(-c3cccc4c3CC[C@@H]4Oc3nc(OC)c(CNC[C@@H]4CCC(=O)N4)cc3Cl)c2Cl)ccc1CN[C@@H]1CCC[C@@H]1O [Example 644]	82	136	1.95
COc1nc(-c2cccc(-c3cccc(-c4ccc5ncc(CNC[C@@H](O)CC(=O)O)n5c4)c3Cl)c2Cl)ccc1CNC[C@@H](O)CC(=O)O [Example 621]	≥ 50000	≥ 10000	1.04
COc1nc(O[C@H]2CCc3c(-c4cccc(-c5cnc(CN[C@@H]6CCC[C@@H]6O)c(OC)n5)c4Cl)cccc32)c(Cl)cc1CNC[C@@H]1CCC(=O)N1 [Example 647]	234	211	1.89
COc1nc(-c2cccc(-c3cccc4c3CC[C@@H]4Oc3nc(OC)c(CN4CC5(C(=O)O)CCC4CC5)cc3Cl)c2Cl)ccc1CNC[C@@H]1CCC(=O)N1 [Example 766]	21	19.4	0.064
Cc1c(COc2cc(OCc3cncc(C#N)c3)c(CNC[C@@H](O)CC(=O)O)cc2Cl)cccc1-c1cccc(-c2ccc(OC[C@@H](N)CO)cc2)c1C [Example 353, (S)-4-((4-((4″-((S)-2-amino-3-hydroxypropoxy)-2,2′-dimethyl-[1,1′:3′,1″-terphenyl]-3-yl)methoxy)-5-chloro-2-((5-cyanopyridin-3-yl)methoxy)benzyl)amino)-3-hydroxybutanoic acid]	153	215	0.311
Cc1c(COc2cc(OCc3cncc(C#N)c3)c(CNC[C@@H](O)CC(=O)O)cc2Cl)cccc1-c1cccc(-c2ccc3c(c2)c(C)nn3CCNC[C@@H](O)CC(=O)O)c1C [Example 347, (S)-4-((4-((3′-(1-(2-(((S)-3-carboxy-2-hydroxypropyl)amino)ethyl)-3-methyl-1H-indazol-5-yl)-2,2′-dimethyl-[1,1′-biphenyl]-3-yl)methoxy)-5-chloro-2-((5-cyanopyridin-3-yl)methoxy)benzyl)amino)-3-hydroxybutanoic acid]	142	125	0.211
COc1cc(-c2cccc(-c3cccc(COc4cc(OCc5cncc(C#N)c5)c(CN[C@@](C)(CO)C(=O)O)cc4Cl)c3C)c2C)ccc1CN [Example 506]	204	172	0.239
COc1nc(-c2cccc(-c3cccc4c3CC[C@@H]4Oc3nc(OCc4cncc(C#N)c4)c(CN[C@@](C)(CO)C(=O)O)cc3Br)c2C)ccc1C1=NCCN1 [Example 748]	24	10.1	0.064
COc1nc(O[C@H]2CCc3c(-c4cccc(-c5cnc(CNC[C@@H]6CCC(=O)N6)c(OC)n5)c4Cl)cccc32)c(Cl)cc1CN1CC[C@@H](C(=O)O)C1 [Example 768]	33	47.4	0.064
COc1nc(-c2cc(F)cc(-c3cccc4c3CC[C@@H]4Oc3ccc(CNC[C@@H]4CCC(=O)N4)c(OCc4cncc(C#N)c4)n3)c2Cl)ccc1CNC[C@@H]1CCC(=O)N1 [Example 800]	246	537	1.29
Cc1c(COc2cc(OCc3cncc(C#N)c3)c(CNCCO)cc2Cl)cccc1-c1cccc(-c2ccc(CNCCO)cc2)c1CF [Example 365, 5-((4-chloro-5-((2′-(fluoromethyl)-4″-(((2-hydroxyethyl)amino)methyl)-2-methyl-[1,1′:3′,1″-terphenyl]-3-yl)methoxy)-2-(((2-hydroxyethyl)amino)methyl)phenoxy)methyl)nicotinonitrile]	408	174	1.57
Cc1c(COc2cc(OCc3cncc(C#N)c3)c(CNC[C@@H](O)CC(=O)O)cc2Cl)cc(F)cc1-c1cccc(-c2ccc(OCCN3CC[C@@H](O)C3)cc2)c1C [Example 446]	315	458	0.453
C[C@@](CO)(NCc1cc(Cl)c(O[C@H]2CCc3c(-c4cccc(-c5ccc(OCCNCCO)cc5)c4Cl)cccc32)nc1OCc1cc(C#N)cc(C#N)c1)C(=O)O [Example 332, (S)-2-(((5-chloro-6-(((S)-4-(2-chloro-4′-(2-((2-hydroxyethyl)amino)ethoxy)-[1,1′-biphenyl]-3-yl)-2,3-dihydro-1H-inden-1-yl)oxy)-2-((3,5-dicyanobenzyl)oxy)pyridin-3-yl)methyl)amino)-3-hydroxy-2-methylpropanoic acid]	47	18.7	0.114
Cc1c(COc2cc(OCc3cncc(C#N)c3)c(CN3C[C@@H](O)C[C@H]3C(=O)O)cc2Cl)cccc1-c1cccc(-c2ccc(OCCNCCO)cc2)c1C [Example 510]	147	232	0.064
Cc1c(COc2cc(OCc3cncc(C#N)c3)c(CNC[C@@H](O)CC(=O)O)cc2Cl)cccc1-c1cccc(-c2ccc(OCCNC[C@@H](O)CC(=O)O)cc2)c1Cl [Example 341, (S)-4-((4-((4″-(2-(((S)-3-carboxy-2-hydroxypropyl)amino)ethoxy)-2′-chloro-2-methyl-[1,1′:3′,1″-terphenyl]-3-yl)methoxy)-5-chloro-2-((5-cyanopyridin-3-yl)methoxy)benzyl)amino)-3-hydroxybutanoic acid]	284	38.3	0.064
COc1nc(O[C@H]2CCc3c(-c4cccc(-c5cnc(CN6CC7(C6)CN(C(C)=O)C7)c(OC)n5)c4Cl)cccc32)c(Cl)cc1CN1CC[C@@H](C(=O)O)C1 [Example 767]	57	75.7	0.064
CC(=O)NCCNCc1ccc(-c2cccc(-c3cccc(COc4cc(OCc5cncc(C#N)c5)c(CN[C@@](C)(CO)C(=O)O)cc4Cl)c3C)c2C)cc1 [Example 362, (S)-2-((4-((4″-(((2-acetamidoethyl)amino)methyl)-2,2′-dimethyl-[1,1′:3′,1″-terphenyl]-3-yl)methoxy)-5-chloro-2-((5-cyanopyridin-3-yl)methoxy)benzyl)amino)-3-hydroxy-2-methylpropanoic acid]	221	108	0.104
N#Cc1cncc(COc2nc(O[C@H]3CCc4c(-c5cccc6c5CC[C@@H]6Oc5nc(OCc6cncc(C#N)c6)c(CNCCO)cc5Br)cccc43)c(Br)cc2CNCCO)c1 [Example 751]	355	182	4.51
COc1nc(-c2cccc(-c3cccc(COc4cc(OCc5cncc(C#N)c5)c(CNC[C@@H](O)CC(=O)O)cc4Cl)c3C)c2C)ccc1C1=NCCN1 [Example 505]	80	55	0.064
COc1nc(-c2cccc(-c3cccc(-c4ccc5c(c4)[C@H](N)CC5)c3Cl)c2Cl)ccc1C1=NCCN1 [Example 623]	≥ 50000	≥ 10000	5.2
Cc1c(COc2cc(OCc3cncc(C#N)c3)c(CN3CCCC[C@H]3C(=O)O)cc2Cl)cccc1-c1cccc(-c2ccc(OCCNCCO)cc2)c1C [Example 344, (S)-1-(5-chloro-2-((5-cyanopyridin-3-yl)methoxy)-4-((4″-(2-((2-hydroxyethyl)amino)ethoxy)-2,2′-dimethyl-[1,1′:3′,1″-terphenyl]-3-yl)methoxy)benzyl)piperidine-2-carboxylic acid]	475	55	0.064
Cc1c(COc2cc(OCc3cncc(C#N)c3)c(CNC[C@@H](O)CC(=O)O)cc2Cl)cccc1-c1cccc(-c2ccc(CCN3CCCC3)cc2)c1C [Example 300, (S)-4-((5-chloro-2-((5-cyanopyridin-3-yl)methoxy)-4-((2,2′-dimethyl-4″-(2-(pyrrolidin-1-yl)ethyl)-[1,1′:3′,1″-terphenyl]-3-yl)methoxy)benzyl)amino)-3-hydroxybutanoic acid]	3720	223	0.673
Cn1cc(CN2CC3(CNC(=O)C3)C2)c2ncc(-c3cccc(-c4cccc(-c5cnc6c(CN7CC8(CNC(=O)C8)C7)cn(C)c6n5)c4Cl)c3Cl)nc21 [Example 588]	50	206	0.081
COc1nc(-c2cccc(-c3cccc(-c4ccn5cc(CN6CC(O)C6)nc5c4)c3Cl)c2Cl)ccc1CN1CC(O)C1 [Example 616]	≥ 50000	156	0.295

Source: patent publication US12590062B2, “PD-1/PD-L1 inhibitors” (Gilead Sciences, Inc., priority 2017, dated 2026)
